# According to patent publication US20190256474A1, “N-PHENYL-2-(3-PHENYL-6-OXO-1,6-DIHYDROPYRIDAZIN-1-YL)ACETAMIDE DERIVATIVES FOR TREATING CYSTIC FIBROSIS” (Proteostasis Therapeutics, Inc., priority 2016, published 2019):
# Biological target: T1, ΔF508-CFTR (Homo sapiens, UniProt P13569, DEL508-508)
# T1 construct: Primary lung epithelial cells homozygous for the Cystic Fibrosis-causing ΔF508 mutation were differentiated; endogenous in cells; host or cells: primary human bronchial epithelial cells (hBE), ΔF508/ΔF508
# Experiment: hBE equivalent current (Ieq) assay, CFTR activity
# Assay type: cell-based
# Conditions: relative to a CFTR amplifier at 3 μM, ΔF508 homozygous hBE, 24 h treatment; for Activity 3 μM: compound at 3 μM; for Activity 10 μM: compound at 10 μM
# Experimental: Primary lung epithelial cells homozygous for the Cystic Fibrosis-causing ΔF508 mutation were differentiated for a minimum of 4 weeks in an air-liquid interface on Costar 24 well HTS filter plates prior to the equivalent current (Ieq) measurements. Cells were apically mucus-washed for 30 minutes 24 h prior to treatment with compounds. The basolateral media was removed and replaced with media containing the compound of interest diluted to its final concentration from DMSO stocks. Treated cells were incubated at 37° C. and 5% CO2 for 24 hours. At the end of the treatment period, the media was changed to the Ieq experimental solution for 2 hours before the experiment and plates are maintained in a CO2-free incubator during this period. The plates containing the cells were then placed in pre-warmed heating blocks at 36° C.±0.5 for 15 minutes before measurements are taken. The transepithelial voltage (VT) and conductance (GT) were measured using a custom 24 channel current clamp (TECC-24) with 24 well electrode manifold. The Ieq assay measurements were made following additions with standardized time periods:
# 1. The baseline VT and GT values were measured for approximately 20 minutes.
# 2. Benzamil was added to block ENaC for 15 minutes.
# 3. Forskolin plus VX-770 were added to maximally activate ΔF508-CFTR for 27 minutes.
# 4. Bumetanide was added to inhibit the NaK2Cl cotransporter and shut-off secretion of chloride.
# The activity data captured was the area under the curve (AUC) for the traces of the equivalent chloride current. The AUC was collected from the time of the forskolin/VX-770 addition until the inhibition by bumetanide addition. Correction in response to compound treatment was scored as the increase in the AUC for compound-treated samples over that of vehicle-treated samples.
# The results are shown below in Table 1. + indicates activity <150% of a CFTR amplifier with compound at concentration shown and amplifier at 3 μM; ++ indicates activity >150% of a CFTR amplifier with compound at concentration shown and amplifier at 3 μM.
# T1 sequence (P13569 with tags, fused parts or gaps DEL508-508): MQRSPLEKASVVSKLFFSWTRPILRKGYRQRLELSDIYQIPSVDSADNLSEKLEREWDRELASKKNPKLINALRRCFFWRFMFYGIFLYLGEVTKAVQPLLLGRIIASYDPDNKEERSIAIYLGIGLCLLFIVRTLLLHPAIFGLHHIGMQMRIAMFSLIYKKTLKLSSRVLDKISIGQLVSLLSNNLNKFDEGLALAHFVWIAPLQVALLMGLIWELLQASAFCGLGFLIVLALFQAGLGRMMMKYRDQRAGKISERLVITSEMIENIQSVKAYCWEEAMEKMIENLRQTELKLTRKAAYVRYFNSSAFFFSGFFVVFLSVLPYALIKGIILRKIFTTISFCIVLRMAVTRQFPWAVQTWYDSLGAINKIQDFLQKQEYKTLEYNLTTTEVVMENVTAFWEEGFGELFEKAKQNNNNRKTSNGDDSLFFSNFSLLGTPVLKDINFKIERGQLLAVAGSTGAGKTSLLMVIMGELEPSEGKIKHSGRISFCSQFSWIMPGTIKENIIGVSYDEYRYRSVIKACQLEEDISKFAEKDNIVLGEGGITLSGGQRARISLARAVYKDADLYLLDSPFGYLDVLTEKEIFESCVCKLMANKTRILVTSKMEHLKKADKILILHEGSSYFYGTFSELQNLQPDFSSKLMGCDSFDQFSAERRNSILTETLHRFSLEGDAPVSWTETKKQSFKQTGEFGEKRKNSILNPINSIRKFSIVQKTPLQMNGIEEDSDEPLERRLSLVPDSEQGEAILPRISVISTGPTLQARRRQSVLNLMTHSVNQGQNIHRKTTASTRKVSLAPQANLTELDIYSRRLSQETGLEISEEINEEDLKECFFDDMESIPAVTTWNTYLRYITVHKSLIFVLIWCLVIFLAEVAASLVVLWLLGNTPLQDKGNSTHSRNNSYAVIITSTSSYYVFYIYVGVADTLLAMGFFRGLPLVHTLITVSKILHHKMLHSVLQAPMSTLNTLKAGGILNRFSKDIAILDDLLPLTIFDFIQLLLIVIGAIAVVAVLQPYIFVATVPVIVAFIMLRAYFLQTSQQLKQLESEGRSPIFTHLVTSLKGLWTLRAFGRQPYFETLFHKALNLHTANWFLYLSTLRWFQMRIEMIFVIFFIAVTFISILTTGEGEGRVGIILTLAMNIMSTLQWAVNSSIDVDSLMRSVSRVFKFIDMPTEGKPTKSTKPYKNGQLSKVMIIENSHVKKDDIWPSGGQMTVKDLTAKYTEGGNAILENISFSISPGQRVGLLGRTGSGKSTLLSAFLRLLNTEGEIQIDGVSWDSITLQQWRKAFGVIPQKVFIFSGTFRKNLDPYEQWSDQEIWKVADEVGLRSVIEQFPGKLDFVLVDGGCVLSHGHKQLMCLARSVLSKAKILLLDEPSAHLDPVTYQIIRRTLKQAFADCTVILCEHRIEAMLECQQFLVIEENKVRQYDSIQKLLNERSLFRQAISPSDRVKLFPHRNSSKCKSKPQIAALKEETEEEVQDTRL
smiles,measurement,value
"COc1cccc(-c2ccc(=O)n(C(C)C(=O)Nc3ccccc3)n2)c1 (stereo not shown) [Compound 15, 2-[3-(3-Methoxyphenyl)-6-oxo-1,6-dihydropyridazin-1-yl]-N-phenylpropanamide]",Activity 3 μM,+ (activity <150% of a CFTR amplifier with compound at concentration shown and amplifier at 3 μM)
same,Activity 10 μM,+ (activity <150% of a CFTR amplifier with compound at concentration shown and amplifier at 3 μM)
"CC(C(=O)Nc1cc(F)cc(F)c1)n1nc(-c2cccc(OC(F)(F)F)c2)ccc1=O (stereo not shown) [Compound 2, N-(3,5-Ddifluorophenyl)-2-[6-oxo-3-[3-(trifluoromethoxy)phenyl]-1,6-dihydropyridazin-1-yl]propanamide]",Activity 3 μM,+ (activity <150% of a CFTR amplifier with compound at concentration shown and amplifier at 3 μM)
same,Activity 10 μM,+ (activity <150% of a CFTR amplifier with compound at concentration shown and amplifier at 3 μM)
"CC(C(=O)Nc1ccc(C(F)(F)F)cc1)n1nc(-c2ccc(C#N)cc2)ccc1=O (stereo not shown) [Compound 37, 2-[3-(4-Cyanophenyl)-6-oxo-1,6-dihydropyridazin-1-yl]-N-[4-(trifluoromethyl)phenyl]propanamide]",Activity 3 μM,+ (activity <150% of a CFTR amplifier with compound at concentration shown and amplifier at 3 μM)
same,Activity 10 μM,+ (activity <150% of a CFTR amplifier with compound at concentration shown and amplifier at 3 μM)
"CC(C(=O)Nc1ccc(C(F)(F)F)cc1)n1nc(-c2cccc(C(F)(F)F)c2)ccc1=O (stereo not shown) [Compound 33, 2-[6-Oxo-3-[3-(trifluoromethyl)phenyl]-1,6-dihydropyridazin-1-yl]-N-[4-(trifluoromethyl)phenyl]propanamide]",Activity 3 μM,++ (activity >150% of a CFTR amplifier with compound at concentration shown and amplifier at 3 μM)
same,Activity 10 μM,++ (activity >150% of a CFTR amplifier with compound at concentration shown and amplifier at 3 μM)
"COc1cccc(-c2ccc(=O)n(C(C)(C(=O)Nc3ccc(C(F)(F)F)cc3)c3ccccc3)n2)c1 (stereo not shown) [Compound 54, 2-(3-(3-Methoxyphenyl)-6-oxopyridazin-1(6H)-yl)-2-phenyl-N-(4-(trifluoromethyl)phenyl)propanamide]",Activity 10 μM,+ (activity <150% of a CFTR amplifier with compound at concentration shown and amplifier at 3 μM)
"COc1cccc(-c2ccc(=O)n(C(C)C(=O)Nc3cc(Cl)cc(Cl)c3)n2)c1 (stereo not shown) [Compound 46, N-(3,5-Dichlorophenyl)-2-(3-(3-methoxyphenyl)-6-oxopyridazin-1(6H)-yl)propanamide]",Activity 3 μM,++ (activity >150% of a CFTR amplifier with compound at concentration shown and amplifier at 3 μM)
same,Activity 10 μM,++ (activity >150% of a CFTR amplifier with compound at concentration shown and amplifier at 3 μM)
"COc1cccc(-c2ccc(=O)n(C(C)C(=O)Nc3ccc(C(F)(F)F)c(F)c3)n2)c1 (stereo not shown) [Compound 43, N-[3-Fluoro-4-(trifluoromethyl)phenyl]-2-[3-(3-methoxyphenyl)-6-oxo-1,6-dihydropyridazin-1-yl]propanamide]",Activity 3 μM,++ (activity >150% of a CFTR amplifier with compound at concentration shown and amplifier at 3 μM)
same,Activity 10 μM,++ (activity >150% of a CFTR amplifier with compound at concentration shown and amplifier at 3 μM)
"COc1cccc(-c2ccc(=O)n(C(C)C(=O)Nc3cc(O)c(C(C)(C)C)cc3C(C)(C)C)n2)c1 (stereo not shown) [Compound 26, N-(2,4-Di-tert-butyl-5-hydroxyphenyl)-2-[3-(3-methoxyphenyl)-6-oxo-1,6-dihydropyridazin-1-yl]propanamide]",Activity 3 μM,+ (activity <150% of a CFTR amplifier with compound at concentration shown and amplifier at 3 μM)
same,Activity 10 μM,+ (activity <150% of a CFTR amplifier with compound at concentration shown and amplifier at 3 μM)
"COc1cccc(-c2ccc(=O)n(C(C)C(=O)N(C)c3cc(F)cc(F)c3)n2)c1 (stereo not shown) [Compound 17, N-(3,5-Difluorophenyl)-2-[3-(3-methoxyphenyl)-6-oxo-1,6-dihydropyridazin-1-yl]-N-methylpropanamide]",Activity 3 μM,+ (activity <150% of a CFTR amplifier with compound at concentration shown and amplifier at 3 μM)
same,Activity 10 μM,+ (activity <150% of a CFTR amplifier with compound at concentration shown and amplifier at 3 μM)
"CC(C(=O)Nc1ccc(C(F)(F)F)cc1)n1nc(-c2cccc(Oc3ccccc3)c2)ccc1=O (stereo not shown) [Compound 51, 2-[3-[3-(Phenoxy)phenyl]-6-oxo-1,6-dihydropyridazin-1-yl]-N-[4-(trifluoromethyl)phenyl]propanamide]",Activity 3 μM,++ (activity >150% of a CFTR amplifier with compound at concentration shown and amplifier at 3 μM)
same,Activity 10 μM,++ (activity >150% of a CFTR amplifier with compound at concentration shown and amplifier at 3 μM)
"COc1cccc(-c2ccc(=O)n(C(C)C(=O)Nc3cccc(C#N)c3)n2)c1 (stereo not shown) [Compound 45, N-(3-Cyanophenyl)-2-(3-(3-methoxyphenyl)-6-oxopyridazin-1(6H)-yl)propanamide]",Activity 3 μM,+ (activity <150% of a CFTR amplifier with compound at concentration shown and amplifier at 3 μM)
same,Activity 10 μM,+ (activity <150% of a CFTR amplifier with compound at concentration shown and amplifier at 3 μM)
"COc1cccc(NC(=O)C(C)n2nc(-c3cccc(OC)c3)ccc2=O)c1 (stereo not shown) [Compound 6, N-(3-Methoxyphenyl)-2-[3-(3-methoxyphenyl)-6-oxo-1,6-dihydropyridazin-1-yl]propanamide]",Activity 3 μM,+ (activity <150% of a CFTR amplifier with compound at concentration shown and amplifier at 3 μM)
same,Activity 10 μM,+ (activity <150% of a CFTR amplifier with compound at concentration shown and amplifier at 3 μM)
"COc1cccc(-c2nn(C(C)C(=O)Nc3cc(F)cc(F)c3)c(=O)cc2C)c1 (stereo not shown) [Compound 21, N-(3,5-Difluorophenyl)-2-[3-(3-methoxyphenyl)-4-methyl-6-oxo-1,6-dihydropyridazin-1-yl]propanamide]",Activity 3 μM,+ (activity <150% of a CFTR amplifier with compound at concentration shown and amplifier at 3 μM)
same,Activity 10 μM,+ (activity <150% of a CFTR amplifier with compound at concentration shown and amplifier at 3 μM)
"COc1cc(OC)cc(-c2ccc(=O)n(C(C)C(=O)Nc3cc(F)cc(F)c3)n2)c1 (stereo not shown) [Compound 3, N-(3,5-difluorophenyl)-2-[3-(3,5-dimethoxyphenyl)-6-oxo-1,6-dihydropyridazin-1-yl]propanamide]",Activity 3 μM,++ (activity >150% of a CFTR amplifier with compound at concentration shown and amplifier at 3 μM)
same,Activity 10 μM,++ (activity >150% of a CFTR amplifier with compound at concentration shown and amplifier at 3 μM)
"COc1cccc(-c2ccc(=O)n(C(C)C(=O)Nc3ccc(Cl)c(Cl)c3)n2)c1 (stereo not shown) [Compound 27, N-(3,4-Dichlorophenyl)-2-[3-(3-methoxyphenyl)-6-oxo-1,6-dihydropyridazin-1-yl]propanamide]",Activity 3 μM,++ (activity >150% of a CFTR amplifier with compound at concentration shown and amplifier at 3 μM)
same,Activity 10 μM,++ (activity >150% of a CFTR amplifier with compound at concentration shown and amplifier at 3 μM)
"COc1cccc(-c2ccc(=O)n(C(C)C(=O)Nc3ccc(Cl)cc3)n2)c1 (stereo not shown) [Compound 14, N-(4-Chlorophenyl)-2-[3-(3-methoxyphenyl)-6-oxo-1,6-dihydropyridazin-1-yl]propanamide]",Activity 10 μM,++ (activity >150% of a CFTR amplifier with compound at concentration shown and amplifier at 3 μM)
"CC(C(=O)Nc1cc(F)cc(F)c1)n1nc(-c2cccc(N(C)C)c2)ccc1=O (stereo not shown) [Compound 4, N-(3,5-Difluorophenyl)-2-[3-[3-(dimethylamino)phenyl]-6-oxo-1,6-dihydropyridazin-1-yl]propanamide]",Activity 10 μM,+ (activity <150% of a CFTR amplifier with compound at concentration shown and amplifier at 3 μM)
"COc1cccc(-c2ccc(=O)n(C(Cc3ccccc3)C(=O)Nc3ccc(C(F)(F)F)cc3)n2)c1 (stereo not shown) [Compound 53, 2-(3-(3-Methoxyphenyl)-6-oxopyridazin-1(6H)-yl)-3-phenyl-N-(4-(trifluoromethyl)phenyl)propanamide]",Activity 10 μM,+ (activity <150% of a CFTR amplifier with compound at concentration shown and amplifier at 3 μM)
"CC(C(=O)Nc1ccc(C(F)(F)F)cc1)n1nc(-c2ccccc2)ccc1=O (stereo not shown) [Compound 28, 2-(6-oxo-3-phenyl-1,6-dihydropyridazin-1-yl)-N-[4-(trifluoromethyl)phenyl]propanamide]",Activity 3 μM,++ (activity >150% of a CFTR amplifier with compound at concentration shown and amplifier at 3 μM)
same,Activity 10 μM,++ (activity >150% of a CFTR amplifier with compound at concentration shown and amplifier at 3 μM)
